What was measured:
wild oat = assay: Test B postemergence herbicide test; format: in vivo, Avena fatua; conditions: postemergence, visual rating, scale 0 (no effect) to 100 (complete control)
Outline: (§1)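 Treated at 2-leaf (paddy) or 1–4-leaf, 2–18 cm (postemergence); greenhouse 13–15 d; visual score vs control, 0 none to 100 complete control; dash = not tested.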

large crabgrass = assay: Test B pre-/postemergence herbicide test; format: in vivo, Digitaria sanguinalis; conditions: for Crabgrass, Large plant response rating: postemergence, scale 0 (no effect) to 100 (complete control)
Outline: (§2)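 Visual rating, 0 (no effect) to 100 (complete control), versus untreated controls after 13–15 d in greenhouse. Pre- and postemergence applications (postemergence plants 2–18 cm, 1–4 leaves); flooded paddy arm at 2-leaf stage. Compounds in non-phytotoxic solvent plus surfactant.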

morningglory = assay: Test B pre-/postemergence herbicide test; format: in vivo, Ipomoea coccinea; conditions: for Morningglory plant response rating: postemergence, scale 0 (no effect) to 100 (complete control)
Outline: (§3)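 Herbicidal effect was judged by eye on a 0–100 scale after plants stood 13 to 15 days in the greenhouse following pre- or postemergence treatment with surfactant-containing formulations.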

rice [1] = assay: Test B flooded paddy test; format: in vivo, Oryza sativa; conditions: 1000 g ai/ha, visual rating, scale 0 to 100 (0 no effect, 100 complete control), 13 to 15 days
Outline: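 Read-out: visual comparison with controls, scored 0 to 100, where 100 means complete control and 0 no effect. Formulated chemicals were applied postemergence to plants 2–18 cm tall (1- to 4-leaf), or to flooded-paddy plants at the 2-leaf stage, then held 13 to 15 days under glass.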

[2] = test system: smallflower umbrella sedge; assay: Test C flooded paddy test; format: in vivo, Cyperus difformis
barnyardgrass [3] = assay: Test B flooded paddy test; format: in vivo, Echinochloa crus-galli; conditions: 1000 g ai/ha, visual rating, scale 0 to 100 (0 no effect, 100 complete control), 13 to 15 days
Outline: as §1

wheat = assay: Test B postemergence herbicide test; format: in vivo, Triticum aestivum; parameters: key to Wheat plant response rating: 0 = no effect, 100 = complete control; conditions: postemergence, visual rating, scale 0 (no effect) to 100 (complete control)
Outline: as §1

pigweed = assay: Test B pre-/postemergence herbicide test; format: in vivo, Amaranthus retroflexus; conditions: for Pigweed plant response rating: postemergence, scale 0 (no effect) to 100 (complete control)
Outline: as §2

ducksalad [4] = assay: Test C flooded paddy test; format: in vivo, Heteranthera limosa
corn = assay: Test B pre-/postemergence herbicide test; format: in vivo, Zea mays; conditions: for Corn plant response rating: postemergence, scale 0 (no effect) to 100 (complete control)
Outline: as §2

barnyardgrass [5] = assay: Test B pre-/postemergence herbicide test; format: in vivo, Echinochloa crus-galli; conditions: for Barnyardgrass plant response rating: postemergence, scale 0 (no effect) to 100 (complete control)
Outline: as §3

barnyardgrass [6] = assay: Test C flooded paddy test; format: in vivo, Echinochloa crus-galli
Outline: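 After a postemergence application at 1 to 4 leaves (plants 2–18 cm high), or at 2 leaves for barnyardgrass in flooded paddy, plants stayed in the greenhouse for 12 to 14 days. Damage was then judged visually relative to control plants, with 100 indicating complete control.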

[7] = test system: small flower umbrella sedge; assay: Test B flooded paddy test; format: in vivo, Cyperus difformis; conditions: 1000 g ai/ha, visual rating, scale 0 to 100 (0 no effect, 100 complete control), 13 to 15 days
Outline: as §1

blackgrass = assay: Test B postemergence herbicide test; format: in vivo, Alopecurus myosuroides; conditions: postemergence, visual rating, scale 0 (no effect) to 100 (complete control)
Outline: as §1

ducksalad [8] = assay: Test B flooded paddy test; format: in vivo, Heteranthera limosa; conditions: 1000 g ai/ha, visual rating, scale 0 to 100 (0 no effect, 100 complete control), 13 to 15 days
Outline: as §1

rice [9] = assay: Test B pre-/postemergence herbicide test; format: in vivo, Oryza sativa; conditions: 0 = no effect, 100 = complete control, preemergence
Outline: as §2

rice [10] = assay: Test C flooded paddy test; format: in vivo, Oryza sativa
Outline: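 Plants were grown to the 1- to 4-leaf stage (2–18 cm) and then treated postemergence, or grown to the 2-leaf stage for the flooded paddy test. They were held in a greenhouse for 12 to 14 days and then scored by eye against controls, where 0 is no effect and 100 is complete control.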

lambsquarters = assay: Test B pre-/postemergence herbicide test; format: in vivo, Chenopodium album; conditions: for Lambsquarters plant response rating: postemergence, visual rating, scale 0 (no effect) to 100 (complete control)
Outline: as §2

cocklebur = assay: Test B pre-/postemergence herbicide test; format: in vivo, Xanthium strumarium; conditions: for Cocklebur plant response rating: postemergence, scale 0 (no effect) to 100 (complete control)
Outline: as §3

velvetleaf = assay: Test B pre-/postemergence herbicide test; format: in vivo, Abutilon theophrasti; conditions: for Velvetleaf plant response rating: postemergence, scale 0 (no effect) to 100 (complete control)
Outline: as §2

giant foxtail = assay: Test B pre-/postemergence herbicide test; format: in vivo, Setaria faberi; conditions: for Foxtail, Giant plant response rating: postemergence, scale 0 (no effect) to 100 (complete control)
Outline: as §2

Surinam grass = assay: Test B pre-/postemergence herbicide test; format: in vivo, Urochloa decumbens; conditions: for Surinam Grass plant response rating: postemergence, scale 0 (no effect) to 100 (complete control)
Outline: as §2

[11] = 125 g ai/ha, 0 = no effect, 100 = complete control, preemergence
[12] = 500 g ai/ha, visual rating, 0 = no effect, 100 = complete control, preemergence
[13] = 62 g ai/ha, scale 0 to 100 (0 no effect, 100 complete control)
[14] = 125 g ai/ha, scale 0 to 100 (0 no effect, 100 complete control)
[15] = 250 g ai/ha, scale of 0 to 100, 0 is no effect, 100 is complete control
[16] = 500 g ai/ha, visual rating after 12 to 14 days, scale 0 to 100 (0 no effect, 100 complete control)

CCc1nc(C(C)(C)C)sc1C(=O)Nc1cc(C(=O)N(C)C)ccc1F [Compound 225]
Oat, Wild plant response rating (wild oat; 125 g ai/ha): 0 | Oat, Wild plant response rating (wild oat; 500 g ai/ha): 30 | Crabgrass, Large plant response rating (0 to 100 scale) (large crabgrass; [11]): 10 | Plant response rating, Crabgrass, Large (large crabgrass; [12]): 100 | Crabgrass, Large plant response rating (large crabgrass; 125 g ai/ha, visual rating): 10 | Crabgrass, Large plant response rating (large crabgrass; 500 g ai/ha, visual rating): 20 | Morningglory plant response rating (0 to 100 scale) (morningglory; [11]): 0 | Plant response rating, Morningglory (morningglory; [12]): 10 | Morningglory plant response rating (morningglory; 125 g ai/ha, visual rating): 10 | Morningglory plant response rating (morningglory; 500 g ai/ha, visual rating): 40 | Rice plant response rating (rice [1]): 90 | Sedge, Umbrella plant response rating [2, 13]: 65 | Sedge, Umbrella plant response rating [2, 14]: 75 | Sedge, Umbrella plant response rating [2, 15]: 75 | Plant response rating, Sedge, Umbrella [2, 16]: 80 | Barnyardgrass plant response rating (barnyardgrass [3]): 90 | Wheat plant response rating (wheat; 125 g ai/ha): 10 | Wheat plant response rating (wheat; 500 g ai/ha): 30 | Pigweed plant response rating (0 to 100 scale) (pigweed; [11]): 70 | Plant response rating, Pigweed (pigweed; [12]): 100 | Pigweed plant response rating (pigweed; 125 g ai/ha, visual rating): 40 | Pigweed plant response rating (pigweed; 500 g ai/ha, visual rating): 70 | Ducksalad plant response rating (ducksalad [4]; [13]): 10 | Ducksalad plant response rating (ducksalad [4]; [14]): 75 | Ducksalad plant response rating (ducksalad [4]; [15]): 85 | Plant response rating, Ducksalad (ducksalad [4]; [16]): 85 | Corn plant response rating (0 to 100 scale) (corn; [11]): 30 | Plant response rating, Corn (corn; [12]): 70 | Corn plant response rating (corn; 125 g ai/ha, visual rating): 10 | Corn plant response rating (corn; 500 g ai/ha, visual rating): 20 | Barnyardgrass plant response rating (0 to 100 scale) (barnyardgrass [5]; [11]): 60 | Plant response rating, Barnyardgrass (barnyardgrass [5]; [12]): 90 | Barnyardgrass plant response rating (barnyardgrass [5]; 125 g ai/ha, visual rating): 10 | Barnyardgrass plant response rating (barnyardgrass [5]; 500 g ai/ha, visual rating): 30 | Barnyardgrass plant response rating (barnyardgrass [6]; [13]): 35 | Barnyardgrass plant response rating (barnyardgrass [6]; [14]): 60 | Barnyardgrass plant response rating (barnyardgrass [6]; [15]): 80 | Plant response rating, Barnyardgrass (barnyardgrass [6]; [16]): 90 | Sedge, Umbrella plant response rating [7]: 90 | Blackgrass plant response rating (blackgrass; 125 g ai/ha): 20 | Blackgrass plant response rating (blackgrass; 500 g ai/ha): 40 | Ducksalad plant response rating (ducksalad [8]): 90 | Rice plant response rating (0 to 100 scale) (rice [9]; 125 g ai/ha): 60 | Plant response rating, Rice (rice [9]; 500 g ai/ha, visual rating): 90 | Rice plant response rating (rice [10]; [13]): 55 | Rice plant response rating (rice [10]; [14]): 70 | Rice plant response rating (rice [10]; [15]): 75 | Plant response rating, Rice (rice [10]; [16]): 80 | Lambsquarters plant response rating (0 to 100 scale) (lambsquarters; [11]): 80 | Lambsquarters plant response rating (lambsquarters; 125 g ai/ha): 50 | Lambsquarters plant response rating (lambsquarters; 500 g ai/ha): 70 | Cocklebur plant response rating (0 to 100 scale) (cocklebur; [11]): 0 | Plant response rating, Cocklebur (cocklebur; [12]): 40 | Cocklebur plant response rating (cocklebur; 125 g ai/ha, visual rating): 20 | Cocklebur plant response rating (cocklebur; 500 g ai/ha, visual rating): 20 | Velvetleaf plant response rating (0 to 100 scale) (velvetleaf; [11]): 30 | Plant response rating, Velvetleaf (velvetleaf; [12]): 100 | Velvetleaf plant response rating (velvetleaf; 125 g ai/ha, visual rating): 30 | Velvetleaf plant response rating (velvetleaf; 500 g ai/ha, visual rating): 40 | Foxtail, Giant plant response rating (0 to 100 scale) (giant foxtail; [11]): 60 | Plant response rating, Foxtail, Giant (giant foxtail; [12]): 100 | Foxtail, Giant plant response rating (giant foxtail; 125 g ai/ha, visual rating): 10 | Foxtail, Giant plant response rating (giant foxtail; 500 g ai/ha, visual rating): 20 | Surinam Grass plant response rating (0 to 100 scale) (Surinam grass; [11]): 20 | Plant response rating, Surinam Grass (Surinam grass; [12]): 90 | Surinam Grass plant response rating (Surinam grass; 125 g ai/ha, visual rating): 10 | Surinam Grass plant response rating (Surinam grass; 500 g ai/ha, visual rating): 20
